US12358963B2, “Regenerative polypeptides and uses thereof” (Juvena Therapeutics, Inc., priority 2019, dated 2025)

What was measured:
Format in all cases: cell-based
human myoblast cells [1] = assay: Human myoblast differentiation, percentage area of MyHC; settings: Example 3, purified, 96 hours with daily media change; vehicle control 1.384
Method: (§1) FIG. 1A: The suspension CHO cells were transiently transfected with the IGF2-hFcm encoding plasmid. IGF2-hFcm was affinity-purified by Protein A membrane column. The purified IGF2-hFcm was added into the culture of human myoblast cells for 96 hours. Myosin heavy chain (MyHC) was immunostained and imaged by a fluorescence microscope.
as §1, with “The” for “FIG. 1A: The”, “IGF2-LhFc4” for “IGF2-hFcm”, “hours with daily media change.” for “hours.”
The suspension CHO cells were transiently transfected with the HSA-L-IGF2R61A encoding plasmid. HSA-L-IGF2R61A was affinity-purified by Protein A membrane column. […] Myosin heavy chain (MyHC) was immunostained and imaged by a fluorescence microscope.
Suspension CHO cells were transiently transfected with the IGF2-hFcm encoding plasmid. […] After quantification of the stained MyHC, the percentage area of MyHC was calculated as the percent of pixels within the field that are illuminated above background in the stained channel. […] Significance was determined by a p-value less than 0.05 by the one-way ANOVA Tukey Honest Significant Difference test.

mouse myoblast cells = assay: Mouse myoblast proliferation assay (EdU); settings: for % EdU: vehicle 3.14
Method: FIG. 5A) Bar graph quantitation of % EdU+ mouse myoblast in response to BMP7. Myoblast were cultured 48h in the presence of BMP7 at indicated dose. Fresh media and BMP7 was added every 24h, followed by 2 hour EdU pulse and fixation. Mean∓S.D. Significant p-values (Vehicle˜BMP7 0.025 ug/mL: 1.21E-07, Vehicle˜BMP7 0.075 ug/mL: 8.05E-07, Vehicle˜BMP7 0.2255 ug/mL: 3.37E-03, Vehicle˜BMP7 0.9 ug/mL: 4.99E-02). FIG. 5B) Bar graph quantitation of % EdU+ human myoblast (person) in response to BMP7. Myoblast were cultured 72h in the presence of BMP7 at indicated dose. Cells were pulsed with EdU for 4 hours before fixation. Mean∓S.D. Significant p-values (Vehicle˜BMP7 1.56 ng/mL: 0.04). (*p<0.05 by Welch's One-Tailed T-test, n=2)
FIG. 6A) Bar graph of % EdU+ mouse myoblast cells compared to vehicle. Mouse myoblast were cultured 48h in the presence of indicated factors, followed by a 2 hour EdU pulse prior to fixation. Mean∓S.D. Significant p-values (FM˜BMP7: 0.008 ug/mL: 3.17E-02, FM˜Leucine: 300 uM BMP7: 0.008 ug/mL: 2.77E-03, FM˜Leucine: 100 uM BMP7: 0.008 ug/mL: 3.72E-05, FM˜Leucine: 900 uM BMP7: 0.008 ug/mL: 2.52E-03). (*p<0.05 by One-Way ANOVA Tukey Honest Significant Difference, n=2-6)
FIG. 7A: Bar graph of % EdU+ mouse myoblast cells compared to vehicle. Mouse myoblast were cultured 48h in the presence of indicated factors. EdU pulse and fixation. Mean∓S.D. (*p<0.05 by Student's One-Tailed T-Test of increased activity, n=2-6)
FIG. 10A) The suspension CHO cells were transiently transfected with either the empty control plasmid or the FGF17-hFcm encoding plasmid. After four days, the culture supernatants were collected and added into the culture of mouse myoblast cells for 48 hours, followed by a 2 hour EdU pulse prior to fixation. […] FIG. 10B) The suspension CHO cells were transiently transfected with the FGF17-hFcm encoding plasmid. After four days, the culture supernatants were collected and FGF17-hFcm was affinity-purified by Protein A membrane column. The purified FGF17-hFcm was added into the culture of mouse myoblast cells for 48 hours, followed by a 2 hour EdU pulse and fixation.
(§2) FIG. 11A: SDS-PAGE of culture supernatants from CHO cells transiently transfected with FGF17-hFcm or its mutants encoding plasmids (FGF17d181-216-hFcm, FGF17d204-216-hFcm, FGF17R204QK207Q-hFcm). The expressed FGF17-hFcm proteins and the mutant proteins were indicated by the white arrowheads. FIG. 11B) The culture supernatants from CHO cells transiently transfected with different FGF17 encoding plasmids were added into the culture of mouse myoblast cells for 48 hours followed by 2 hour EdU pulse and fixation.
as §2, with “12A)” for “11A:”, “(FGF17d197-216-hFcm, FGF17K191AK193AS200A-hFcm).” for “(FGF17d181-216-hFcm, FGF17d204-216-hFcm, FGF17R204QK207Q-hFcm).”, “12B)” for “11B)”, “hours,” for “hours”
FIG. 14A: Bar graph of % EdU+ mouse myoblast cells compared to vehicle. Myoblast were cultured 48h in the presence of indicated factors. […] Mean∓S.D. Table quantitation of % EdU and p-values (*p<0.05 by One-Way ANOVA Tukey Honest Significant Difference, n=2-6)
FIG. 15A: Bar graph of % EdU+ mouse myoblast cells compared to vehicle. […] Mean∓S.D. Table quantitation of % EdU and p-values shown. […]

Mouse myoblasts = assay: Mouse myoblast fusion index with sodium butyrate; settings: 48h, vehicle 7.56
Method: Mouse myoblasts were treated with PBS or sodium butyrate at concentrations 0.1 nM, 1 nM, and 10 nM. Myoblasts were cultured for 48 hours, with fresh media added every 24 hours. Cells were pulsed for 2-5 hours with EdU (30 uM), ethanol fixed, stained with Hoescht 3342, immunostained for proliferation—as measured by the percent of cells staining positive for EdU (% EdU)—, and immunostained for differentiation—as measured by the increase in cellular area staining positive for embryonic myosin heavy chain (% eMyHC) relative to the negative controls, which received media and vehicle only. […] Significance was determined by a p-value less than 0.05 by the one-way ANOVA Tukey Honest Significant Difference test.
FIG. 2A: Bar graph of fusion index in response to sodium butyrate (NaBut) compared to vehicle. Myoblast were cultured 48h in the presence of NaBut at indicated dose. Fresh media and NaBut were added every 24h. Mean∓S.D. Table quantitation of fusion index and p-values also shown. (*p<0.05 by Student's Two-tailed T-test, n=3-5)

human myoblast cells [2] = assay: Human myoblast differentiation, % area eMyHC (IGF2, sodium butyrate); settings: 96h, vehicle 6.813
Method: Fresh media was added every 24 hours. […] The total area of eMyHc positive cells was analyzed, and treated cells were compared to cells treated with the vehicle alone. […] Myoblast were cultured 96h in the presence of BMP7 at indicated dose. Fresh media and BMP7 was added every 24h. Mean∓S.D. (*p<0.05 by One-Way Anova Tukey Honest Significant Difference, n=2-12) […] Fresh media was added every 24 hours. […] FIG. 3A: Bar graph of % Area eMyHC+ age human myoblast (person) in response to indicated treatment compared to Vehicle (vehicle). Myoblast were cultured 96h in the presence of factors at indicated dose. Fresh media and factors were added every 24h. Mean∓S.D. Significant p-values (Vehicle IGF2: 0.03 ug/mL: 1.42E-08, Vehicle NaBut: 1 nM IGF2: 0.03 ug/mL: 1.79E-11, Vehicle NaBut: 10 nM IGF2: 0.03 ug/mL: 1.80E-11, Vehicle NaBut: 100 nM IGF2: 0.03 ug/mL: 1.79E-11). […] Myoblast were cultured 96h in the presence of BMP7 at indicated dose. Mean±S.D. Significant p-values (IGF2 NaBut: 1 nM IGF2: 0.03 ug/mL: 1.88E-3, Vehicle NaBut: 10 nM IGF2: 0.03 ug/mL: 4.80E-3, Vehicle NaBut: 100 nM IGF2: 0.03 ug/mL: 1.87E-3) (*p<0.05 by One-Way ANOVA Tukey Honest Significant Difference, n=2-12)

DM1 human myoblast = assay: Gene expression fold change in DM1 human myoblast; settings: 48h; BMP7 50 ng/mL, Butyrate 100 nM, IGF2 200 ng/mL; FM 1.000

## IGF2-hFc4: IGF2 fused to hFc4, human IgG4 Fc with S228P point mutation
Human myoblast cells [1]
  % MyHC: 6.901%

## Heparin [reference compound]
Mouse myoblast cells; Heparin 0.5 ug/mL, 48h
  % EdU: 1.77%
Mouse myoblast cells; Heparin 1 ug/mL, 48h
  % EdU: 3.01%
Mouse myoblast cells; Heparin 2 ug/mL, 48h
  % EdU: 2.85%

## CCCC(=O)[O-].[Na+] [NaBut, sodium butyrate]
Mouse myoblasts; 0.1 nM
  Fusion Index (nuclei/myotube): 8.44 nuclei/myotube
Mouse myoblasts; 1 nM
  Fusion Index (nuclei/myotube): 31.60 nuclei/myotube
Mouse myoblasts; 10 nM
  Fusion Index (nuclei/myotube): 14.00 nuclei/myotube
Human myoblast cells [2]; NaBut 1 nM
  % eMyHC: 2.321%
Human myoblast cells [2]; NaBut 10 nM
  % eMyHC: 6.199%
Human myoblast cells [2]; NaBut 100 nM
  % eMyHC: 8.341%
DM1 human myoblast
  MYF5 expression fold change compared to FM: 1.128
  MYOD1 expression fold change compared to FM: 1.095
  MYOG expression fold change compared to FM: 1.020

## Hyaluronic Acid [Hyaluronic Acid (HA)]
Mouse myoblast cells; hyaluronic acid with BMP7, 48h
  Effect on BMP7 mitogenic activity (% EdU+): Enhances BMP7 Mitogenic Activity

## CC(C)C[C@H](N)C(=O)O [Leucine]
Mouse myoblast cells; Leucine 100, 300, 900 uM with BMP7 0.008 ug/mL, 48h
  Effect on BMP7 mitogenic activity (% EdU+): Enhances BMP7 Mitogenic Activity
